Data taken from patent US20210115406A1, “HOST-BIOME INTERACTIONS” (EMULATE, INC., priority 2018, published 2021).

How the values were obtained:
Airway On-Chip cells = experiment: TUNEL apoptosis staining on Airway On-Chip; format: cell-based; conditions: 3 μM for 3 h at 37° C., positive control
Procedure: One embodiment of an Airway On-Chip is infected as described above for 2 hours and then treated 50 μg/ml tetracycline for 24 h (top and bottom channels under flow) for 24 h in order to limit bacterial replication (to avoid over-replication and cell lifting). Using this methodology, we performed longer infections on an airway chip and avoided cell death at 24 h. At 24 h, chips are fixed with 4% paraformaldehyde for 15 minutes and subsequently permeabilized with 0.25% triton in PBS. Apoptosis staining is performed following the Click-iT™ Plus TUNEL Assay for In Situ Apoptosis Detection, Alexa Fluor 647 assay: Click-iT™ Plus TUNEL Assay, Thermo Fisher Scientific Inc., 6 November 2017.
The TUNEL assay is based on the incorporation of modified dUTPs by the enzyme terminal deoxynucleotidyl transferase (TdT) at the 3′-OH ends of fragmented DNA, a hallmark as well as the ultimate determinate of apoptosis. Click-iT™ Plus TUNEL assay with the Alexa Fluor™ 647 dye is utilized to detect the fragment DNA (purple), nuclei are labelled with DAPI.
Staurosporin, a prototypical ATP-competitive kinase inhibitor, is used as a positive control in this assay. […] As an additional positive control, chips are treated with 1 unit of DNAse I for 30 minutes at room temperature to induce TUNEL positive DNA strand breaks.

Caco-2 Intestine-Chip = experiment: Bacterial colonization, attachment and titration on Intestine-Chip; format: cell-based, human; conditions: SEM images of the Intestine-Chip
From the text: Top Channel: Caco-2. Day 1: Connect to flow. Day 3: Inoculation and Readouts: Imaging; Permeability; Bacterium Titer; etc. Day 8: Inflammatory Challenge. Readouts: Imaging; Permeability; Cytokines; Bacterium Titer; etc. Day 8 +4 hrs: Readouts: Imaging; Permeability; Cytokines; Bacterium Titer; etc. Day 8 +14 hrs: Readouts: Permeability; Cytokines; Effluent Titer; etc. Day 8 +14 hrs: Collect Endpoints: RNA; Immunofluorescence; Adherent Titer; etc.
Barrier function is an indicator of epithelial cell health in the intestine. […] Each bacteria strain was added (inoculated) on chip at a concentration of 1×10^6 mL^−1.
FIG. 44A Bacterial Titration (counts mL^−1) at Day 3 and Day 4 compared to adherent counts at Day 4.
Bacterial Titration. Viable, aerotolerant bifidobacterial strains colonized the Caco-2 Intestine-Chip and could be detected in plate Titers.

[1] = system: Lamina Propria Immune Cells; experiment: Steroidal treatment of lamina propria immune cells on Intestine-Chip; format: cell-based, human; conditions: 10 μM (10X clinically relevant dosage); before and after challenge with PAM2CSK4; ulcerative colitis patients
Airway cells = experiment: Permeability of airway cells to Imipenem on Airway chip; format: cell-based; conditions: at lower concentrations
Procedure: More specifically, in one embodiment of an Airway on-chip, duplicate chips are infected with PA 5919 WT or PA 5890 Mutant as described herein. Then, Imipenem is added to apical and basolateral fluids (cell media) for treatment with Imipenem at 50, 100 and 500 μg/ml for 24 hours with at least one chip without Imipenem. At 24 h post treatment, wash cells 3× to remove the test drug, i.e. antibiotic Imipenem. Cells lysed with 1% Triton for 10 minutes on chip, then the lyste is collected from the chip's channels. Lysates are serially diluted for CFU quantification. N=2
Assay readouts: Viability of extracellular bacteria (apical sampling). Viability of intracellular bacteria (cell lysis and sampling). Two-way ANOVA with Dunnett's post-test **<0.05, **<0.001 (compared to untreated).

`CN[C@@H]1C[C@H]2O[C@@](C)([C@@H]1OC)n1c3ccccc3c3c4c(c5c6ccccc6n2c5c31)C(=O)NC4` [staurosporin, Staurosporin] was tested, and the “apoptotic cell numbers (TUNEL)” value (Airway On-Chip cells) was “increased apoptotic cell numbers”.
Lactobacillus rhamnosus strain GG [LGG] was tested, and the “attachment and biofilm formation” value (Caco-2 Intestine-Chip) was “evidence of LGG attachment and biofilm formation”.
In the case of `C[C@]12C=CC(=O)C=C1CC[C@@H]1[C@@H]2C(=O)C[C@@]2(C)[C@H]1CC[C@]2(O)C(=O)CO` [Prednisone], the inflammatory responses [1] is reported as “suppresses inflammatory responses”.
In the case of `C[C@@H](O)[C@H]1C(=O)N2C(C(=O)O)=C(SCCN=CN)C[C@H]12` [Imipenem], the “permeability of airway cells to the drug” value (Airway cells) is reported as “impermeable”.
